Tests used:
[1] = molecular target: T1, human estrogen receptor beta (ESR2) (Homo sapiens, UniProt Q92731); assay: ERE-luciferase reporter assay in transiently transfected SKBR3 cells (ESR2); assay type: cell-based; settings: ESR2 isoform, E2 10 nM, RAD1901 10^-10-10^-6 M, 24 hours
T1 construct: expressed in transfected cells; host or cells: SKBR3
Experimental: The ability of RAD1901 (FIG. 5A) to modulate the […] estradiol (E2) dependent transcriptional activity of the human estrogen receptor alpha (ESR1) and human estrogen receptor beta (ESR2) was assessed in transiently transfected SKBR3 cells using a synthetic reporter gene. […] For FIG. 5B, SKBR3 cells were plated in phenol red free media supplemented with charcoal stripped FBS (CFS) 24 hours prior to transfection with an ERE-luciferase reporter together with ESR1 or ESR2 expression vectors. 24 hours after transfection, cells were treated with E2 (10 nM) together with RAD1901 (10^−10-10^−6 M) for 24 hours prior to harvest and analysis of luciferase activity normalized to co-transfected β-galactosidase control. […] For FIG. 5D, MCF7 cells were plated in phenol red free media supplemented with CFS 24 hours prior to treatment, and were treated with 10^−9 M E2 as well as with the indicated ligands (10^−11-10^−6 M) on days 1, 4, and 6 of an 8 day proliferation assay. DNA content as assessed by fluorescence was measured as a surrogate for cell proliferation. The relative increase in DNA fluorescence was calculated by normalizing to baseline values detected in a duplicate plate of cells that was harvested on day 1 prior to the initial treatment. […] For FIG. 5F, expression of ESR1 target genes in tumors was analyzed essentially as in (C).

MCF7 xenograft tumors = assay: MCF7 xenograft tumor study in estrogen-treated ovariectomized nu/nu mice; assay type: in vivo; settings: 20 mg/kg sc daily
Experimental: A total of 90 female Nu/Nu mice were ovariectomized and implanted subcutaneous simultaneously with an estrogen pellet (Innovative Research of America) releasing 0.72 mg estradiol (E2) over 60 days. 2 days later an approximately 6 mm^3 fragment of an MCF7 xenograft tumor (isolated from a recently sacrificed estrogen treated nu/nu mouse) was inserted subcutaneous into the axial mammary gland. Tumor growth (by caliper measurement) and animal body weight were monitored 3× weekly until tumor volume reached ˜0.2 cm^3. […] Treatments were formulated in sterile corn oil and were administered daily by subcutaneous injection. After 3 weeks of treatments, animals were euthanized and serum and tissues saved for analysis. FIG. 1B depicts tumor volume analyzed using non-linear curve fit and exponential growth calculation (Graphpad Prism), followed by two-way ANOVA and Bonferroni analysis.
Xenograft tumor analysis: Estrogen-stimulated MCF7 tumors were initiated in the axial mammary gland of 6-week old estrogen-treated (0.72 mg/60 days pellet sc, Innovative Research of America) ovariectomized female NU/NU mice (in-house colony) by serial transfer and were measured as described (Wardell et al., (2013) Clin Cancer Res 19 (9):2420-2431). […] Animal tissues were processed and analyzed as described (Wardell et al., (2013) Clin Cancer Res 19 (9):2420-2431).
The ability of RAD1901 (FIG. 5A) to modulate the […] estradiol (E2) dependent transcriptional activity of the human estrogen receptor alpha (ESR1) and human estrogen receptor beta (ESR2) was assessed in transiently transfected SKBR3 cells using a synthetic reporter gene. […] DNA content as assessed by fluorescence was measured as a surrogate for cell proliferation. The relative increase in DNA fluorescence was calculated by normalizing to baseline values detected in a duplicate plate of cells that was harvested on day 1 prior to the initial treatment. […] For FIG. 5F, expression of ESR1 target genes in tumors was analyzed essentially as in (C).

MCF7 cells = assay: MCF7 proliferation in response to E2 or insulin; assay type: cell-based; settings: SERMs and SERDs 10^-6 M, insulin 2×10^-9 M
Experimental: The expression of ESR1 target genes responsive to (FIG. 10A) agonists, (FIG. 10B) primarily SERMs, or (FIG. 10C) SERMs and agonists was analyzed as in FIG. 5. Relative changes of these and additional target genes designed to evaluate dose dependent response to RAD1901 are presented in FIG. 11. Significant target gene regulation (*p<0.05) as compared to the vehicle control was detected by 2 way ANOVA followed by Fisher's LSD (Graphpad Prism 6). […] Triplicate wells of SKBR3 cells were transfected with plasmids expressing ESR1 fused to VP16 together with Gal4DBD alone (control) or Gal4DBD fused to ESR1 interacting peptides noted on the horizontal axis. Cells were then treated with the indicated ESR1 ligands (10^−7 M unless otherwise indicated). Interaction of ESR1 with the Gal4DBD peptide constructs was detected through activation of a Gal4-responsive luciferase reporter construct and was normalized to detected β-galactosidase activity expressed in a constitutive manner using a second vector. Normalized response was expressed as fold increase over the detected level of interaction between Gal4DBD alone and ESR1-VP16 in the absence of ligand (Veh). For FIG. 10E, the effect of SERMs and SERDs (10^−6 M) on the proliferation of MCF7 cells in response to E2 (10^−9 M) or insulin (2×10^−9 M) was evaluated as in FIG. 5. Statistically similar treatments (2-way ANOVA followed by Bonferroni comparison) are indicated by letters. […] The expression of ESR1 target genes responsive to (A) agonists, (B) primarily SERMs, or (C) SERMs and agonists was analyzed using RT qPCR following RNA isolation. mRNA expression was normalized (ΔΔCT analysis) to the similarly detected 36B4 housekeeping. The profiles presented in dendogram format were analyzed with the Ward hierarchical clustering algorithm (JMP 11) using standardized data.

LTED MCF7 cells = assay: LTED MCF7 cell proliferation assay; assay type: cell-based; settings: model of aromatase resistance, 10^-11-10^-6 M, 8 day assay

T1 sequence (Q92731 whole entry, canonical isoform): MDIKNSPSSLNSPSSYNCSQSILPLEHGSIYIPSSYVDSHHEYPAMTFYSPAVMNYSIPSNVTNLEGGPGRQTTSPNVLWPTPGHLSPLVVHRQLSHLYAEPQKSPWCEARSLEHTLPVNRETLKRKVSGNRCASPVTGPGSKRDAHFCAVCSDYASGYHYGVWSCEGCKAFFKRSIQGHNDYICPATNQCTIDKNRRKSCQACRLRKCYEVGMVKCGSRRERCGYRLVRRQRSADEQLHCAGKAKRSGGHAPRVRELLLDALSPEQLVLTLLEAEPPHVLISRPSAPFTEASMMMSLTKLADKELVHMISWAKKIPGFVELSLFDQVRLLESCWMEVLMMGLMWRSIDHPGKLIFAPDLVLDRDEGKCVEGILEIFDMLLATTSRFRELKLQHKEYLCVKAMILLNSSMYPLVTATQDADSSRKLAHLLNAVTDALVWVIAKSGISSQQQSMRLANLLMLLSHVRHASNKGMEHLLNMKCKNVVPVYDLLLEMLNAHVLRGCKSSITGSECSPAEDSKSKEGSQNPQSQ

For `CCNCCc1ccc(CN(CC)c2cc(OC)ccc2[C@@H]2CCc3cc(O)ccc3C2)cc1` [RAD1901, (R)-6-{2-{ethyl[4-(2-ethylaminoethyl)benzyl]amino}-4-methoxyphenyl}-5,6,7,8-tetrahydronaphthalen-2-ol], the “inhibition of E2-dependent activation of an ERE-luciferase reporter” value [1] was “effectively inhibited”, the “E2-stimulated growth of MCF7 tumors” value (MCF7 xenograft tumors) was “inhibited E2-stimulated growth of the tumors with efficacy similar to tamoxifen” and the “expression of ESR1-target genes PGR and FHL1 in treated tumors” value (MCF7 xenograft tumors) was “suppress the expression of the ESR1-target genes PGR and FHL1 to the same degree”. The insulin-stimulated proliferation (MCF7 cells) was “without effect” and the cell proliferation (LTED MCF7 cells) was “inhibited cell proliferation”.

Reference: US10420734B2, “Method of treating cancer using selective estrogen receptor modulators” (Duke University, priority 2014, dated 2019)
